Measurements taken from ChEMBL document CHEMBL3044541, “Control of crown rot-causing fungal pathogens of banana by inorganic salts and a surfactant” (Crop Prot, 2007).
The source made the active and inactive calls. The calls are words filed in the database; no cut-off is given here.

Legend:
Thielaviopsis paradoxa [1] = assay: Antifungal activity against Ceratocystis paradoxa assessed as inhibition of conidium germination at 5 g/l incubated for 15 min followed by compound washout measured after 2 days by microscopic analysis in absence of surfactant APSA 80; assay type: functional, organism-based
Colletotrichum musae [2] = assay: Antifungal activity against Colletotrichum musae assessed as inhibition of conidium germination at 5 g/l incubated for 15 min followed by compound washout measured after 2 days by microscopic analysis in absence of surfactant APSA 80; assay type: functional, organism-based
Lasiodiplodia theobromae [3] = assay: Antifungal activity against Lasiodiplodia theobromae assessed as inhibition of conidium germination at 5 g/l incubated for 15 min followed by compound washout measured after 2 days by microscopic analysis in absence of surfactant APSA 80; assay type: functional, organism-based
Fusarium verticillioides [4] = assay: Growth inhibition of Fusarium verticillioides assessed as inhibition of mycelial growth up to 160 g/l incubated for 15 min followed by compound washout measured after 7 days in absence of surfactant APSA 80; assay type: functional
Fusarium verticillioides [5] = assay: Growth inhibition of Fusarium verticillioides assessed as inhibition of mycelial growth up to 160 g/l incubated for 15 min followed by compound washout measured after 7 days in presence of surfactant APSA 80; assay type: functional, organism-based
Colletotrichum musae [6] = assay: Growth inhibition of Colletotrichum musae assessed as inhibition of mycelial growth up to 160 g/l incubated for 15 min followed by compound washout measured after 7 days in absence of surfactant APSA 80; assay type: functional
Colletotrichum musae [7] = assay: Growth inhibition of Colletotrichum musae assessed as inhibition of mycelial growth up to 160 g/l incubated for 15 min followed by compound washout measured after 7 days in presence of surfactant APSA 80; assay type: functional, organism-based
Thielaviopsis paradoxa [8] = assay: Growth inhibition of Ceratocystis paradoxa assessed as inhibition of mycelial growth up to 160 g/l incubated for 15 min followed by compound washout measured after 7 days in absence of surfactant APSA 80; assay type: functional, organism-based
Thielaviopsis paradoxa [9] = assay: Growth inhibition of Ceratocystis paradoxa assessed as inhibition of mycelial growth up to 160 g/l incubated for 15 min followed by compound washout measured after 7 days in presence of surfactant APSA 80; assay type: functional
Colletotrichum musae [10] = assay: Antifungal activity against Colletotrichum musae assessed as inhibition of conidium germination at 5 g/l incubated for 15 min followed by compound washout measured after 7 days by microscopic analysis in presence of surfactant APSA 80; assay type: functional, organism-based
Thielaviopsis paradoxa [11] = assay: Antifungal activity against Ceratocystis paradoxa assessed as inhibition of conidium germination at 5 g/l incubated for 15 min followed by compound washout measured after 7 days by microscopic analysis in presence of surfactant APSA 80; assay type: functional, organism-based
Lasiodiplodia theobromae [12] = assay: Antifungal activity against Lasiodiplodia theobromae assessed as inhibition of conidium germination at 5 g/l incubated for 15 min followed by compound washout measured after 7 days by microscopic analysis in presence of surfactant APSA 80; assay type: functional, organism-based
Fusarium verticillioides [13] = assay: Antifungal activity against Fusarium verticillioides assessed as inhibition of conidium germination at 5 g/l incubated for 15 min followed by compound washout measured after 2 days by microscopic analysis in absence of surfactant APSA 80; assay type: functional, organism-based
Fusarium verticillioides [14] = assay: Antifungal activity against Fusarium verticillioides assessed as inhibition of conidium germination at 5 g/l incubated for 15 min followed by compound washout measured after 7 days by microscopic analysis in presence of surfactant APSA 80; assay type: functional, organism-based
Colletotrichum musae [15] = assay: Growth inhibition of Colletotrichum musae assessed as concentration required for inhibition of mycelial growth incubated for 15 min followed by compound washout measured after 7 days in presence of surfactant APSA 80; assay type: functional
Lasiodiplodia theobromae [16] = assay: Growth inhibition of Lasiodiplodia theobromae assessed as concentration required for inhibition of mycelial growth incubated for 15 min followed by compound washout measured after 7 days in absence of surfactant APSA 80; assay type: functional
Lasiodiplodia theobromae [17] = assay: Growth inhibition of Lasiodiplodia theobromae assessed as concentration required for inhibition of mycelial growth incubated for 15 min followed by compound washout measured after 7 days in presence of surfactant APSA 80; assay type: functional
Musa acuminata AAA Group [18] = assay: Phytotoxicity against Musa acuminata AAA Group (Cavendish banana) assessed as skin burn incubated for 15 min followed by compound washout measured after 1 to 3 weeks in presence of surfactant APSA 80 relative to control; assay type: organism-based; conditions: in vivo
Musa acuminata AAA Group [19] = assay: Phytotoxicity against Musa acuminata AAA Group (Cavendish banana) assessed as discoloration incubated for 15 min followed by compound washout measured after 1 to 3 weeks in presence of surfactant APSA 80 relative to control; assay type: organism-based; conditions: in vivo
Fusarium verticillioides [20] = assay: Antifungal activity against Fusarium verticillioides infected Cavendish banana fruit assessed as reduction in crown rot incubated for 15 min followed by compound washout measured after 3 weeks in presence of surfactant APSA 80 relative to control; assay type: functional; parameters: scale not given: the % may be the effect or the level left; conditions: pooled result: one value given for 4 cell lines, strains, targets or settings
Fusarium verticillioides [21] = assay: Antifungal activity against Fusarium verticillioides infected Cavendish banana fruit assessed as reduction in crown rot incubated for 15 min followed by compound washout measured after 3 weeks in absence of surfactant APSA 80 relative to control; assay type: functional; parameters: scale not given: the % may be the effect or the level left; conditions: pooled result: one value given for 4 cell lines, strains, targets or settings
Fusarium verticillioides [22] = assay: Antifungal activity against Fusarium verticillioides infected Cavendish banana fruit assessed as reduction in crown rot incubated for 15 min followed by compound washout measured after 2 weeks in presence of surfactant APSA 80 relative to control; assay type: functional; parameters: scale not given: the % may be the effect or the level left
Colletotrichum musae [23] = assay: Antifungal activity against Colletotrichum musae infected Cavendish banana fruit assessed as reduction in crown rot incubated for 15 min followed by compound washout measured after 2 weeks in presence of surfactant APSA 80 relative to control; assay type: functional; parameters: scale not given: the % may be the effect or the level left
Thielaviopsis paradoxa [24] = assay: Antifungal activity against Ceratocystis paradoxa infected Cavendish banana fruit assessed as reduction in crown rot incubated for 15 min followed by compound washout measured after 2 weeks in presence of surfactant APSA 80 relative to control; assay type: functional; parameters: scale not given: the % may be the effect or the level left
Lasiodiplodia theobromae [25] = assay: Antifungal activity against Lasiodiplodia theobromae infected Cavendish banana fruit assessed as reduction in crown rot incubated for 15 min followed by compound washout measured after 2 weeks in presence of surfactant APSA 80 relative to control; assay type: functional; parameters: scale not given: the % may be the effect or the level left
Fusarium verticillioides [26] = assay: Antifungal activity against Fusarium verticillioides infected Cavendish banana fruit assessed as reduction in crown rot incubated for 15 min followed by compound washout measured after 2 weeks in absence of surfactant APSA 80 relative to control; assay type: functional; parameters: scale not given: the % may be the effect or the level left
Colletotrichum musae [27] = assay: Antifungal activity against Colletotrichum musae infected Cavendish banana fruit assessed as reduction in crown rot incubated for 15 min followed by compound washout measured after 2 weeks in absence of surfactant APSA 80 relative to control; assay type: functional; parameters: scale not given: the % may be the effect or the level left
Thielaviopsis paradoxa [28] = assay: Antifungal activity against Ceratocystis paradoxa infected Cavendish banana fruit assessed as reduction in crown rot incubated for 15 min followed by compound washout measured after 2 weeks in absence of surfactant APSA 80 relative to control; assay type: functional; parameters: scale not given: the % may be the effect or the level left
Lasiodiplodia theobromae [29] = assay: Antifungal activity against Lasiodiplodia theobromae infected Cavendish banana fruit assessed as reduction in crown rot incubated for 15 min followed by compound washout measured after 2 weeks in absence of surfactant APSA 80 relative to control; assay type: functional; parameters: scale not given: the % may be the effect or the level left
Fusarium verticillioides [30] = assay: Antifungal activity against Fusarium verticillioides infected Cavendish banana fruit assessed as reduction in crown rot incubated for 15 min followed by compound washout measured after 1 week in presence of surfactant APSA 80 relative to control; assay type: functional; parameters: scale not given: the % may be the effect or the level left
Colletotrichum musae [31] = assay: Antifungal activity against Colletotrichum musae infected Cavendish banana fruit assessed as reduction in crown rot incubated for 15 min followed by compound washout measured after 1 week in presence of surfactant APSA 80 relative to control; assay type: functional; parameters: scale not given: the % may be the effect or the level left
Thielaviopsis paradoxa [32] = assay: Antifungal activity against Ceratocystis paradoxa infected Cavendish banana fruit assessed as reduction in crown rot incubated for 15 min followed by compound washout measured after 1 week in presence of surfactant APSA 80 relative to control; assay type: functional; parameters: scale not given: the % may be the effect or the level left
Lasiodiplodia theobromae [33] = assay: Antifungal activity against Lasiodiplodia theobromae infected Cavendish banana fruit assessed as reduction in crown rot incubated for 15 min followed by compound washout measured after 1 week in presence of surfactant APSA 80 relative to control; assay type: functional; parameters: scale not given: the % may be the effect or the level left
Fusarium verticillioides [34] = assay: Antifungal activity against Fusarium verticillioides infected Cavendish banana fruit assessed as reduction in crown rot incubated for 15 min followed by compound washout measured after 1 week in absence of surfactant APSA 80 relative to control; assay type: functional; parameters: scale not given: the % may be the effect or the level left
Colletotrichum musae [35] = assay: Antifungal activity against Colletotrichum musae infected Cavendish banana fruit assessed as reduction in crown rot incubated for 15 min followed by compound washout measured after 1 week in absence of surfactant APSA 80 relative to control; assay type: functional; parameters: scale not given: the % may be the effect or the level left
Thielaviopsis paradoxa [36] = assay: Antifungal activity against Ceratocystis paradoxa infected Cavendish banana fruit assessed as reduction in crown rot incubated for 15 min followed by compound washout measured after 1 week in absence of surfactant APSA 80 relative to control; assay type: functional; parameters: scale not given: the % may be the effect or the level left
Lasiodiplodia theobromae [37] = assay: Antifungal activity against Lasiodiplodia theobromae infected Cavendish banana fruit assessed as reduction in crown rot incubated for 15 min followed by compound washout measured after 1 week in absence of surfactant APSA 80 relative to control; assay type: functional; parameters: scale not given: the % may be the effect or the level left
Fusarium verticillioides [38] = assay: Antifungal activity against Fusarium verticillioides assessed as reduction in colony diameter at 10 to 160 g/l incubated for 15 min followed by compound washout measured after 7 days in absence of surfactant APSA 80 relative to control; assay type: functional; parameters: scale not given: the % may be the effect or the level left
Colletotrichum musae [39] = assay: Antifungal activity against Colletotrichum musae assessed as reduction in colony diameter at 10 to 160 g/l incubated for 15 min followed by compound washout measured after 7 days in absence of surfactant APSA 80 relative to control; assay type: functional; parameters: scale not given: the % may be the effect or the level left
Thielaviopsis paradoxa [40] = assay: Antifungal activity against Ceratocystis paradoxa assessed as reduction in colony diameter at 10 to 160 g/l incubated for 15 min followed by compound washout measured after 7 days in absence of surfactant APSA 80 relative to control; assay type: functional; parameters: scale not given: the % may be the effect or the level left
Lasiodiplodia theobromae [41] = assay: Antifungal activity against Lasiodiplodia theobromae assessed as reduction in colony diameter at 10 to 160 g/l incubated for 15 min followed by compound washout measured after 7 days in absence of surfactant APSA 80 relative to control; assay type: functional; parameters: scale not given: the % may be the effect or the level left
Fusarium verticillioides [42] = assay: Antifungal activity against Fusarium verticillioides assessed as reduction in colony diameter at 10 to 160 g/l incubated for 15 min followed by compound washout measured after 7 days in presence of surfactant APSA 80 relative to control; assay type: functional; parameters: scale not given: the % may be the effect or the level left
Colletotrichum musae [43] = assay: Antifungal activity against Colletotrichum musae assessed as reduction in colony diameter at 10 to 160 g/l incubated for 15 min followed by compound washout measured after 7 days in presence of surfactant APSA 80 relative to control; assay type: functional; parameters: scale not given: the % may be the effect or the level left
Thielaviopsis paradoxa [44] = assay: Antifungal activity against Ceratocystis paradoxa assessed as reduction in colony diameter at 10 to 160 g/l incubated for 15 min followed by compound washout measured after 7 days in presence of surfactant APSA 80 relative to control; assay type: functional; parameters: scale not given: the % may be the effect or the level left
Lasiodiplodia theobromae [45] = assay: Antifungal activity against Lasiodiplodia theobromae assessed as reduction in colony diameter at 10 to 160 g/l incubated for 15 min followed by compound washout measured after 7 days in presence of surfactant APSA 80 relative to control; assay type: functional; parameters: scale not given: the % may be the effect or the level left

O=C([O-])O.[Na+]
inhibition (Thielaviopsis paradoxa [1]): Active
inhibition (Colletotrichum musae [2]): Active
inhibition (Lasiodiplodia theobromae [3]): Active
Activity (Fusarium verticillioides [4]): inactive
Activity (Fusarium verticillioides [5]): inactive
Activity (Colletotrichum musae [6]): inactive
Activity (Colletotrichum musae [7]): inactive
Activity (Thielaviopsis paradoxa [8]): inactive
Activity (Thielaviopsis paradoxa [9]): inactive
inhibition (Colletotrichum musae [10]): Active
inhibition (Thielaviopsis paradoxa [11]): Active
inhibition (Lasiodiplodia theobromae [12]): Active
inhibition (Fusarium verticillioides [13]): Active
inhibition (Fusarium verticillioides [14]): Active

O=C([O-])[O-].[Na+].[Na+] [SODIUM CARBONATE]
Activity (Colletotrichum musae [15]): 80 g/L
Activity (Lasiodiplodia theobromae [16]): 150 g/L
Activity (Lasiodiplodia theobromae [17]): 40 g/L
Activity (Musa acuminata AAA Group [18]): Toxic
Activity (Musa acuminata AAA Group [19]): Toxic
Activity (Fusarium verticillioides [20]): 65%
Activity (Fusarium verticillioides [21]): 35%
Activity (Fusarium verticillioides [22]): 25%
Activity (Colletotrichum musae [23]): 25%
Activity (Thielaviopsis paradoxa [24]): 25%
Activity (Lasiodiplodia theobromae [25]): 25%
Activity (Fusarium verticillioides [26]): 0%
Activity (Colletotrichum musae [27]): 0%
Activity (Thielaviopsis paradoxa [28]): 0%
Activity (Lasiodiplodia theobromae [29]): 0%
Activity (Fusarium verticillioides [30]): 0%
Activity (Colletotrichum musae [31]): 0%
Activity (Thielaviopsis paradoxa [32]): 0%
Activity (Lasiodiplodia theobromae [33]): 0%
Activity (Fusarium verticillioides [34]): 0%
Activity (Colletotrichum musae [35]): 0%
Activity (Thielaviopsis paradoxa [36]): 0%
Activity (Lasiodiplodia theobromae [37]): 0%
Activity (Fusarium verticillioides [38]): 29%
Activity (Colletotrichum musae [39]): 40%
Activity (Thielaviopsis paradoxa [40]): 63%
Activity (Lasiodiplodia theobromae [41]): 54%
Activity (Fusarium verticillioides [42]): 75%
Activity (Colletotrichum musae [43]): 87%
Activity (Thielaviopsis paradoxa [44]): 85%
Activity (Lasiodiplodia theobromae [45]): 91%
